Experimental data as given in publication PMC8946662, “Topical Bimiralisib Shows Meaningful Cutaneous Drug Levels in Healthy Volunteers and Mycosis Fungoides Patients but No Clinical Activity in a First-in-Human, Randomized Controlled Trial” (Cancers, 2022).
Values joined by “and” are separate entries in the source; they are usually repeats but may differ in a detail not shown here. Equal entries are not always repeated. “Also recorded” adds a separate entry of the source. Where two headings read alike, the source gives them in different places.

Key:
[1] = parameters: method as in earlier work; conditions: plasma; cited from earlier work
[2] = Cutaneous pharmacokinetics in skin punch biopsies of healthy volunteers (MALDI-MSI); type: in vivo, human; conditions: for Kp at 6 h / concentration at 6 h: human, topical; for Kp at 6 h: skin / plasma, 2 mg/cm^2, HVs; for concentration at 6 h: 2 mg/cm^2, HVs, day 21, 6 h after last application
Procedure: (§1) To investigate cutaneous pharmacokinetics in both HVs and patients, 3 mm skin punch biopsies of the treatment area were taken 6 h after the last topical application (day 21 in part A and day 42/84 in part B, respectively) and snap-frozen within 5 min after collection. Skin punch biopsies were shipped to ImaBiotech (MS Imaging Department, Lille, France) and analyzed using matrix-assisted laser desorption/ionization mass spectrometry imaging (MALDI-MSI) to spatially visualize pharmacokinetics of bimiralisib throughout the biopsy (Figure 1).
(§2) Figure 1 Method of obtaining cutaneous pharmacokinetics of bimiralisib in HVs and early-stage MF patients. (A) Bimiralisib gel 2% is applied topically, in part A at the back of six HVs and in part B at 1–3 target MF lesions. (B) A full-thickness skin punch biopsy was taken on day 21 and day 42/84, respectively, for HVs and MF patients. Skin punch biopsy was snap-frozen within 5 min, processed and cryosectioned. A single section was used for H&E staining. (C) MALDI matrix spraying. (D) Prepared samples were ionized by a laser beam. (E) Seven tesla Matrix-assisted laser desorption/ionization Fourier transform ion cyclotron resonance mass spectrometry imaging (7T-MALDI-FTICR MSI) acquisition. (F) Acquired data are analyzed and MALDI images are acquired.
(§3) Pharmacokinetics in tissue were analyzed with a validated 7T-MALDI-FTICR method with a lower limit of quantification of 62 ng/g of tissue and an assay sensitivity of […] (lower limit of detection). Pharmacokinetic data below the lower limit of quantification but above the limit of detection were interpolated and used in the analysis.

[3] = system: early-stage MF target lesions; assay: Clinical efficacy and pharmacodynamics in early-stage MF patients (CAILS, LSCI, OCT, multispectral imaging); type: in vivo, human
Procedure: (§4) The healthy volunteers in part A were administered 2 mg/cm^2 topical bimiralisib 2% on 400 cm^2 and 2 mg/cm^2 vehicle gel (serving as placebo with identical appearance) on 100 cm^2 skin of the back once daily by the study physician for 21 consecutive days, all administered at the study site. The 19 patients in part B were randomized 1:1, with 9 assigned to active and 10 to placebo. Randomization was predefined and performed in SAS version 9.4 (SAS Institute, Cary, NC, USA) by an independent statistician, using the SAS code for the parallel, two-treatment randomization with block size 2. The investigators, study personnel, sponsor and patients were blinded for allocated treatment throughout the study. Patients randomized in the treatment group applied topical bimiralisib 2%, once daily for 42 consecutive days, whereas the control group applied the vehicle gel. During the treatment period, the patients applied the bimiralisib or vehicle themselves at home after training and instructions on day 1. After 42 days, patients with ≥15% lesion improvement by CAILS could enter a blinded extension period in which treatment was continued until day 84.
(§5) At baseline of part B, one to three MF lesions (target lesions) were chosen to define a 150–200 cm^2 treatment area. Other MF lesions were left untreated in this study. Emollients, i.e., unguentum leniens, were distributed to patients and allowed for daily use on the skin, barring the target lesion(s). In part B, patient visits to the study site were scheduled for days −42 (run-in period), 1, 14, 28, 42 (end of treatment for all patients with <15% lesion improvement), 56 and 70 (end of study). Patients continuing with the extended treatment period had three extra visits on days 84 (end of treatment), 98 and 112 (end of study). Study details are provided in the assessment schedule (Table 1, Part B).
The primary endpoint was to evaluate the efficacy of bimiralisib versus placebo after 6 weeks of treatment by the change from baseline on Composite Assessment of Index Lesion Severity (CAILS). Clinical efficacy was assessed by the CAILS per target lesion, which is a score derived from individual scores for erythema, desquamation, plaque elevation, hypo- or hyperpigmentation and lesion size. Change from baseline of the combined CAILS score for all target lesions was used to calculate the objective response rate (ORR), i.e., the number of patients with complete response (CR: 100% clearance of target lesions from baseline) and partial response (PR: 50%–99% clearance) divided by the total number of patients in the respective treatment arm. […] Target lesions were extensively characterized by the assessment of skin perfusion with laser speckle contrast imaging (LSCI, PeriCam PSI NR system, Perimed, Sweden); skin morphology (blood flow) by optical coherence tomography (OCT, VivoSight, Michelson Diagnostics, UK); and erythema, roughness and edema by a multispectral camera (Antera 3D, Miravez, Ireland). The Scarlet Red app (ScarletRed Vision, Vienna, Austria) was used by patients at home for daily photo documentation and erythema quantification of a single target lesion.
All safety and statistical calculations were conducted with SAS version 9.4 for Windows (SAS Institute, Cary, NC, USA). PK parameter calculations were conducted with R version 4.0.3 for Windows (R Foundation for Statistical Computing, Vienna, Austria). All efficacy endpoints were analyzed for both the per protocol set and full analysis set, using a mixed model analysis of covariance (ANCOVA) with treatment, time and interaction of treatment by time as fixed factors; baseline as covariate; and subject as random factor.

[4] = Cutaneous pharmacokinetics in skin punch biopsies of MF patients (MALDI-MSI); type: in vivo, human; conditions: for concentration at 6 h: human, skin punch biopsy, topical, 2 % gel, MF patients
Procedure: as §1, §2, §3

[5] = Systemic pharmacokinetics in plasma of healthy volunteers (UPLC-MS/MS), part A; type: in vivo, human; conditions: for AUC(0-t): topical, 2 mg/cm^2, HVs
Procedure: as §4
(§6) Blood samples for determination of bimiralisib levels in plasma of HVs were collected predose and at 1, 3, 6 and 24 h on days 7, 14 and 21 of application in part A. In part B, PK blood samples from patients were collected predose and at 1, 2, 3 and 6 h after dosing on day 42 (or on day 84 in case of participation in the extension study) of topical application.
(§7) Pharmacokinetics in plasma were analyzed with a validated ultra-performance liquid chromatography–tandem mass spectrometer method (UPLC-MS/MS) with a lower limit of quantification of 1.00 ng/mL of plasma.
(§8) Pharmacokinetic data were visualized for each subject and part separately. Due to differences in surface areas and applied doses between part A and part B, pharmacokinetic data were normalized to allow for the exploration of differences in exposure between HVs and patients after log transformation. For exploratory purposes, the applied dose was stratified by part and by number of lesions. The average concentration (Cavg) per subject was calculated based on all pharmacokinetic data of an individual combined.

MF patients = assay: Safety and tolerability in MF patients, part B; type: in vivo, human
Procedure: as §4
(§9) The secondary endpoint was to characterize local tolerability, safety and systemic exposure of bimiralisib by application site assessment using the Local Irritation Grading Scale (LIGS), adverse events (AEs), safety measurements and systemic pharmacokinetics.
(§10) The LIGS, a composite score of erythema, edema and desquamation, was used to assess the application site for safety or tolerability issues. In addition, safety and tolerability were evaluated by monitoring of AEs, physical examinations, vital signs, 12-lead ECGs and laboratory tests.

[6] = Systemic pharmacokinetics in plasma of early-stage MF patients (UPLC-MS/MS), part B; type: in vivo, human
Procedure: as §4, §5, §6, §7, §8

healthy volunteers = assay: Safety and tolerability in healthy volunteers, part A; type: in vivo, human
Procedure: as §4, §9, §10

CTCL patients = system: CTCL patients; parameters: method as in PMID 29233821; conditions: oral, 19 CTCL patients; cited from earlier work
CTCL cell lines = conditions: cited from earlier work

Compound: Nc1cc(C(F)(F)F)c(-c2nc(N3CCOCC3)nc(N3CCOCC3)n2)cn1 [bimiralisib, 5-(4,6-Dimorpholino-1,3,5-triazin-2-yl)-4-(trifluoromethyl)pyridin-2-amine]
- human no observed adverse effect level (NOAEL Cmax) [1]: 96.6 ng/mL
- Kp at 6 h ([2]; read-out: mean ratio skin/plasma concentration): 3050
- Kp at 6 h ([2]; read-out: ratio skin/plasma concentration, range): 1210 to 7360
- concentration at 6 h ([2]; skin punch biopsy (epidermis), epidermis, read-out: mean concentration in skin punch biopsies): 2540 ng/g
- concentration at 6 h ([2]; skin punch biopsy, read-out: concentration in skin punch biopsies, range): 1030 to 5700 ng/g
- exposure in papillary and reticular dermis, lower than in epidermis ([2]; part A skin punch biopsies): approximately 10 fold
- local exposure in epidermis relative to IC90 of pAKT and pS6 ([2]; part A skin punch biopsies, IC90 from ref 31, 32): within range of the IC90 of pAKT and pS6
- efficacy by CAILS vs placebo, in words ([3]; 42 days once-daily treatment, p = 0.74 over time, p = 0.98 on day 42): No statistical significant difference; also recorded: no statistically significant clinical response
- objective response rates between treatment groups ([3]; Table S7): No substantial differences
- subjects with ≥15% lesional response by CAILS ([3]; bimiralisib group (n = 9), day 42): Three
- clinical response classification ([3]; bimiralisib group, by CAILS): stable disease
- difference in change from baseline in CAILS, bimiralisib vs placebo ([3]; day 42, once daily, 95% CI −3.3–3.4, p = 0.9820): 0.0
- skin perfusion (LSCI), blood flow (OCT), erythema and roughness by 3D multispectral imaging ([3]; target lesions): no improvement
- exposure in papillary dermis, lower than in epidermis ([4]; Figure 5, single HV and single MF patient, MALDI-MSI): approximately 10 fold
- concentration at 6 h ([4]; day 42/84, 6 h after last application, read-out: mean cutaneous concentration in skin punch biopsies): 5300 ng/g
- concentration at 6 h ([4]; day 42/84, read-out: cutaneous concentration in skin punch biopsies, range): 300 to 30200 ng/g
- mean Cavg in plasma ([5]; HVs, 2 mg/cm^2 gel 2% on 400 cm^2 once daily for 21 days): 0.96 ng/mL and 0.956 ng/mL
- time at which steady state is reached ([5]; HVs, topical gel once daily): < 7 days
- plasma concentrations relative to human NOAEL ([5]; HVs, NOAEL 96.6 ng/mL): detectable but low and substantially below
- Cmax ([5]; human, plasma, 2 mg/cm^2, HVs, topical once daily, read-out: highest Cmax in plasma): 2.74 ng/mL
- AUC(0-t) ([5]; human, plasma, after 14 days of once-daily gel, read-out: highest AUC(0-24h)): 40 ng·h/mL
- AUC(0-t) ([5]; human, plasma, day 7, read-out: mean AUC(0-24 h)): 21.3 ng·h/mL
- AUC(0-t) ([5]; human, plasma, day 14, read-out: mean AUC(0-24 h)): 22.2 ng·h/mL
- vital signs, laboratory analyses, ECG, urinalysis (MF patients; both parts): did not result in any clinically significant changes
- overall tolerability (MF patients; local reactions and systemic adverse events, HVs and MF patients): safe and well tolerated
- myalgia, patients (MF patients; part B, bimiralisib group, 2/9): 22.2%
- mild dryness at the application site, patients (MF patients; part B, bimiralisib group, day 14): 1/9
- well-defined erythema at the application site, patients (MF patients; part B, bimiralisib group, day 28): one
- patients with at least one AE (MF patients; part B, bimiralisib group, six of nine patients): 66.7%
- highest plasma concentration reached ([6]; MF patients): 18.70 ng/mL
- mean Cavg in plasma ([6]; MF patients, gel 2% once daily, day 42 or 84): 4.49 ng/mL
- plasma concentrations relative to NOAEL ([6]; MF patients, NOAEL 96.6 ng/mL): substantially below
- mean ratio of normalized plasma concentration, MF patients vs HVs ([6]; normalized around 200 cm^2/(2 mg/cm^2)): 2.44 fold
- increase in normalized plasma concentration, MF patients compared to HVs ([6]; normalized for applied dose and area): 144%
- acne at the application site, subjects (healthy volunteers; bimiralisib area, n = 3): 50%
- LIGS scores, bimiralisib vs placebo areas (healthy volunteers; full course): comparable
- subjects with one or more adverse events (healthy volunteers; n = 6, each subject received both bimiralisib and placebo areas): 100%
- dryness at the application site, subjects (healthy volunteers; reported for both placebo- and bimiralisib-treated areas): 83.3%

Compound: C[C@H](Nc1ncnc2nc[nH]c12)c1cc2cccc(Cl)c2c(=O)n1-c1ccccc1 [duvelisib]
- complete responders by mSWAT (CTCL patients): 3
- partial responders by mSWAT (CTCL patients): 6

Compound: CO[C@H]1C[C@@H]2CC[C@@H](C)[C@@](O)(O2)C(=O)C(=O)N2CCCC[C@H]2C(=O)O[C@H]([C@H](C)C[C@@H]2CC[C@@H](OCCO)[C@H](OC)C2)CC(=O)[C@H](C)/C=C(\C)[C@@H](O)[C@@H](OC)C(=O)[C@H](C)C[C@H](C)/C=C/C=C/C=C/1C [everolimus]
- antitumor activity in vitro (CTCL cell lines): has antitumor activity in vitro
